Test results taken from ChEMBL document CHEMBL2331167, “Inhibitory effect of novel somatostatin peptide analogues on human cancer cell growth based on the selective inhibition of DNA polymerase β” (Bioorg Med Chem, 2013).
pIC50: −log10 of the molar value.

What was measured:
[1] = target: T1, DNA polymerase eta (Homo sapiens, UniProt Q9Y253); assay: Inhibition of human DNA polymerase eta using poly(dA)/oligo(dT)18 (A/T, 2/1)/dTTP DNA template-primer substrate measured at 37 degC for 60 mins
T1 sequence (Q9Y253 whole entry): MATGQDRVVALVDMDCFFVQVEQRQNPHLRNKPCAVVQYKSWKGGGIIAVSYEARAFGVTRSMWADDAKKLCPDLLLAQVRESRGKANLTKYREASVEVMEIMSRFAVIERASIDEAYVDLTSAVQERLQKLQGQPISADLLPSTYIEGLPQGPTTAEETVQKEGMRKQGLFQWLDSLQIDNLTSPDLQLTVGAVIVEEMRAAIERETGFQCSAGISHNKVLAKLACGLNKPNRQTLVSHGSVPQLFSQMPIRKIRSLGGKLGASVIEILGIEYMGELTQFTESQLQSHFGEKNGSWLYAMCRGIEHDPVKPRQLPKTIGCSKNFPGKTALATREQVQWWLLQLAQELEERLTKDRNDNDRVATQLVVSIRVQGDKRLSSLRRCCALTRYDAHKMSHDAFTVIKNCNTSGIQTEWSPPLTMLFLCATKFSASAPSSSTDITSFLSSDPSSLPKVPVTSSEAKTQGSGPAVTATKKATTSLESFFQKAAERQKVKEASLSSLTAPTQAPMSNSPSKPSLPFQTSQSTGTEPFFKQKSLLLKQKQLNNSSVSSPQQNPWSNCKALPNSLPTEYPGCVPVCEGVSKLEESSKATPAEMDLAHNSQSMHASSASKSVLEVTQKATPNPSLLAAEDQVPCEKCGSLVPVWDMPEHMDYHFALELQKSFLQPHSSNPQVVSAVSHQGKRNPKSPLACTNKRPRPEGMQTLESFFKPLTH

[2] = Inhibition of calf DNA polymerase alpha using poly(dA)/oligo(dT)18 (A/T, 2/1)/dTTP DNA template-primer substrate measured at 37 degC for 60 mins; parameters: species or system Bos taurus

## CC[C@H](C)[C@H](NC(=O)[C@H](Cc1ccc(O)cc1)NC(=O)OC(C)(C)C)C(=O)Nc1cccc2ccccc12
[1]
  pIC50: < 3.70
[2]
  pIC50: < 3.70
